The values below come from PubChem BioAssay (NCI).

Test systems include HCT-15 colon; U251 CNS; HS 578T breast; SN12C renal; NCI/ADR-RES ovarian; OVCAR-8 ovarian; NCI-H226 lung; SW-620 colon; RXF 393 renal; SNB-75 CNS.
Common to all, as to assay: growth of human tumour cells (NCI), 48 h

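Compound exposure: 48 hours, 5 concentrations, 96-well plates. Abbreviation: GI50, concentration required for 50% inhibition of growth. At the TGI there is no net growth.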 Some results are limits rather than exact numbers.

With `Cc1ccc2c(-c3ccnc(Nc4cccc(C(F)(F)F)c4)n3)c(-c3ccccc3)nn2n1`, the GI50 with HCT-15 colon was 5.34 µM; with U251 CNS, 10.3 µM; in the assay on HS 578T breast, 7.13 µM; in the assay with SN12C renal it was 3.82 µM; in the assay on NCI/ADR-RES ovarian, 8.47 µM; in the assay with OVCAR-8 ovarian it was 9.27 µM. For the same compound, the GI50 is 6.01 µM in the assay on NCI-H226 lung, 7.81 µM in the assay with SW-620 colon, 2.95 µM with RXF 393 renal and 3.87 µM in the assay on SNB-75 CNS. Besides, the TGI is over 19 µM in the assay with HCT-15 colon; over 25 µM in the assay with U251 CNS; over 25 µM with HS 578T breast; over 15.5 µM with SN12C renal; over 25 µM in the assay with NCI/ADR-RES ovarian; over 25 µM in the assay with OVCAR-8 ovarian. In addition, the TGI in the assay with NCI-H226 lung was 17 µM; in the assay on SW-620 colon, over 22.5 µM; in the assay on RXF 393 renal it was 8.57 µM; with SNB-75 CNS, over 25 µM.

Regarding `Cn1cc(Nc2nccc(-c3ccc4c(c3)CN(C3COC3)CC[C@H]4NC(=O)c3cn(C(C)(C)C)nn3)n2)cn1`, the GI50 was over 100 µM with HCT-15 colon; over 100 µM with U251 CNS; 29.7 µM in the assay on HS 578T breast; 75.3 µM in the assay with SN12C renal; over 100 µM in the assay with NCI/ADR-RES ovarian; over 100 µM with OVCAR-8 ovarian. The GI50 was 38.9 µM in the assay with NCI-H226 lung, over 100 µM in the assay on SW-620 colon, 26.6 µM with RXF 393 renal and 24.4 µM in the assay on SNB-75 CNS. Also, the TGI in the assay on HCT-15 colon, with U251 CNS, in the assay on HS 578T breast, in the assay with SN12C renal, in the assay on NCI/ADR-RES ovarian and with OVCAR-8 ovarian was over 100 µM throughout. For the same compound, the TGI in the assay on NCI-H226 lung, in the assay on SW-620 colon, with RXF 393 renal and in the assay with SNB-75 CNS was over 100 µM in each case.

As to `COc1cc(C(=O)/C=C/c2cccnc2Nc2ccc(Cl)cc2)cc(OC)c1OC`, the GI50 in the assay with HCT-15 colon is 1.49 µM; with U251 CNS, 1.25 µM; with HS 578T breast it was 3.08 µM; in the assay on SN12C renal, 1.46 µM; in the assay on NCI/ADR-RES ovarian it was 1.64 µM; in the assay on OVCAR-8 ovarian it was 1.63 µM. Besides, the GI50 was 1.16 µM in the assay on NCI-H226 lung, 0.955 µM in the assay with SW-620 colon, 1.26 µM in the assay with RXF 393 renal and 1.63 µM in the assay with SNB-75 CNS. Also, the TGI in the assay on HCT-15 colon worked out at 3.48 µM; in the assay with U251 CNS, 2.54 µM; in the assay with HS 578T breast it was 59.2 µM; in the assay with SN12C renal it was 2.86 µM; with NCI/ADR-RES ovarian, 4.4 µM; with OVCAR-8 ovarian it was 4.31 µM. Besides, the TGI turned out to be 2.45 µM with NCI-H226 lung, 2.47 µM with SW-620 colon, 2.61 µM in the assay on RXF 393 renal and 3 µM in the assay on SNB-75 CNS.

Regarding `Cc1[nH]c(N)nc(=S)c1CCCNc1ccccc1`, the TGI with HCT-15 colon, in the assay on U251 CNS, in the assay with HS 578T breast, in the assay on SN12C renal, in the assay on NCI/ADR-RES ovarian and in the assay with OVCAR-8 ovarian was over 100 µM throughout. Besides, the TGI with NCI-H226 lung, in the assay on SW-620 colon, in the assay with RXF 393 renal and in the assay on SNB-75 CNS was over 100 µM throughout.

Consider `Cc1ccc(/C=C(/C#N)n2nnc3cccc(F)c32)cc1`, for which the GI50 with HCT-15 colon is 0.24 µM; in the assay with U251 CNS, 0.489 µM; with HS 578T breast, 0.373 µM; in the assay on SN12C renal, 0.485 µM; with NCI/ADR-RES ovarian, 0.159 µM; in the assay with OVCAR-8 ovarian it was 0.594 µM. In addition, the GI50 in the assay on NCI-H226 lung was 1.76 µM; in the assay on SW-620 colon it was 0.354 µM; with RXF 393 renal, 0.201 µM; with SNB-75 CNS it was 0.212 µM. In addition, the TGI in the assay on HCT-15 colon is 8.69 µM; in the assay on U251 CNS it was 14.4 µM; with HS 578T breast, over 36.8 µM; in the assay on SN12C renal, 12.8 µM; in the assay on NCI/ADR-RES ovarian, 0.848 µM; in the assay on OVCAR-8 ovarian, over 100 µM. The TGI was 8.31 µM in the assay on NCI-H226 lung, 5.53 µM in the assay on SW-620 colon, 0.563 µM in the assay on RXF 393 renal and 0.623 µM in the assay with SNB-75 CNS.

With `COC(=O)C1C(=O)C(C(=O)OC)C2CCC1N2C` (stereo not given), the TGI with HCT-15 colon, in the assay on U251 CNS, in the assay on HS 578T breast, in the assay on SN12C renal, in the assay with NCI/ADR-RES ovarian and in the assay with OVCAR-8 ovarian was over 100 µM each time. Besides, the TGI is over 94.9 µM with NCI-H226 lung, over 100 µM in the assay on SW-620 colon, over 100 µM in the assay with RXF 393 renal and over 100 µM with SNB-75 CNS.
